Holding throughout (experiment): relative viability (nuclei count vs DMSO), 5 days (fraction); higher = more cells survive
Compound in the test “Erlotinib + Vorinostat”: C#Cc1cccc(Nc2ncnc3cc(OCCOC)c(OCCOC)cc23)c1 [Erlotinib] + O=C(CCCCCCC(=O)Nc1ccccc1)NO [Vorinostat] (partner 1 µM)
In outline:
(§1)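 Dosing by pin tool came one day after lung cancer cell lines were seeded in 1536-well plates, using either one drug or a fixed anchor-drug dose plus five library-drug doses (not always all listed) in √10 steps. After 5 days, nuclei were counted on 4× images. Relative viability is treated-well nuclei count divided by vehicle-well nuclei count, and values are medians of duplicate plates.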

Compound in the test “Erlotinib + Bortezomib”: C#Cc1cccc(Nc2ncnc3cc(OCCOC)c(OCCOC)cc23)c1 [Erlotinib] + CC(C)C[C@H](NC(=O)[C@H](Cc1ccccc1)NC(=O)c1cnccn1)B(O)O [Bortezomib] (partner 0.002 µM)
Summed up: as §1

Compound in the test “AT9283 + Decitabine”: O=C(Nc1c[nH]nc1-c1nc2ccc(CN3CCOCC3)cc2[nH]1)NC1CC1 [AT9283] + Nc1ncn([C@H]2C[C@H](O)[C@@H](CO)O2)c(=O)n1 [Decitabine] (partner 2 µM)
In outline: as §1

Compound in the test “Erlotinib + Olaparib”: C#Cc1cccc(Nc2ncnc3cc(OCCOC)c(OCCOC)cc23)c1 [Erlotinib] + O=C(c1cc(Cc2n[nH]c(=O)c3ccccc23)ccc1F)N1CCN(C(=O)C2CC2)CC1 [Olaparib] (partner 8 µM)
In outline:
as §1

Compound in the test “AT9283 + OSI-027”: O=C(Nc1c[nH]nc1-c1nc2ccc(CN3CCOCC3)cc2[nH]1)NC1CC1 [AT9283] + COc1cccc2cc(-c3nc([C@H]4CC[C@H](C(=O)O)CC4)n4ncnc(N)c34)[nH]c12 [OSI-027] (partner 0.5 µM)
In outline: as §1

In the case of NCI-H2347, the relative viability stood at 0.628 in the test with Erlotinib + Vorinostat (first compound 0.02 µM); 0.717 with Erlotinib + Vorinostat (first compound 0.2 µM); 0.625 with Erlotinib + Vorinostat (first compound 0.6325 µM); 0.552 with Erlotinib + Vorinostat (first compound 2 µM); 0.759 in the test with Erlotinib + Bortezomib (first compound 0.02 µM); 0.873 in the test with Erlotinib + Bortezomib (first compound 0.2 µM). Further, the relative viability turned out to be 1.26 with Erlotinib + Bortezomib (first compound 0.6325 µM); 0.659 in the test with Erlotinib + Bortezomib (first compound 2 µM); 0.624 in the test with AT9283 + Decitabine (first compound 0.003 µM); 0.61 with AT9283 + Decitabine (first compound 0.03 µM); 0.471 with AT9283 + Decitabine (first compound 0.09487 µM); 0.372 with AT9283 + Decitabine (first compound 0.3 µM). Moreover, the relative viability in the test with Erlotinib + Olaparib (first compound 0.02 µM) is 0.601; in the test with Erlotinib + Olaparib (first compound 0.2 µM), 0.587; in the test with Erlotinib + Olaparib (first compound 0.6325 µM), 0.526; with Erlotinib + Olaparib (first compound 2 µM) it was 0.562; with AT9283 + OSI-027 (first compound 0.003 µM), 0.444; with AT9283 + OSI-027 (first compound 0.03 µM), 0.427. In addition, the results for the relative viability with AT9283 + OSI-027 (first compound 0.09487 µM) and in the test with AT9283 + OSI-027 (first compound 0.3 µM) were 0.404 and 0.296, respectively.
As to NCI-H3122, the relative viability in the test with Erlotinib + Vorinostat (first compound 0.02 µM) came to 0.93; with Erlotinib + Vorinostat (first compound 0.2 µM), 1.14; in the test with Erlotinib + Vorinostat (first compound 0.6325 µM), 1.05; with Erlotinib + Vorinostat (first compound 2 µM) it was 0.953; with Erlotinib + Bortezomib (first compound 0.02 µM) it was 1.01; with Erlotinib + Bortezomib (first compound 0.2 µM) it was 1.03. Moreover, the relative viability with Erlotinib + Bortezomib (first compound 0.6325 µM) was determined as 1.05; in the test with Erlotinib + Bortezomib (first compound 2 µM), 1.05; in the test with AT9283 + Decitabine (first compound 0.003 µM) it was 0.472; with AT9283 + Decitabine (first compound 0.03 µM) it was 0.397; in the test with AT9283 + Decitabine (first compound 0.09487 µM), 0.296; with AT9283 + Decitabine (first compound 0.3 µM), 0.136. The relative viability with Erlotinib + Olaparib (first compound 0.02 µM) was determined as 0.618; with Erlotinib + Olaparib (first compound 0.2 µM), 0.652; with Erlotinib + Olaparib (first compound 0.6325 µM) it was 0.631; in the test with Erlotinib + Olaparib (first compound 2 µM), 0.618; with AT9283 + OSI-027 (first compound 0.003 µM), 0.94; with AT9283 + OSI-027 (first compound 0.03 µM), 0.645. Moreover, the relative viability is 0.201 with AT9283 + OSI-027 (first compound 0.09487 µM) and 0.115 with AT9283 + OSI-027 (first compound 0.3 µM).
Regarding HARA, the relative viability was 0.643 with Erlotinib + Vorinostat (first compound 0.02 µM); 0.598 in the test with Erlotinib + Vorinostat (first compound 0.2 µM); 0.402 in the test with Erlotinib + Vorinostat (first compound 0.6325 µM); 0.445 in the test with Erlotinib + Vorinostat (first compound 2 µM); 1.2 in the test with Erlotinib + Bortezomib (first compound 0.02 µM); 1.01 with Erlotinib + Bortezomib (first compound 0.2 µM). In addition, the relative viability in the test with Erlotinib + Bortezomib (first compound 0.6325 µM) is 0.959; with Erlotinib + Bortezomib (first compound 2 µM), 0.867; with AT9283 + Decitabine (first compound 0.003 µM), 0.46; with AT9283 + Decitabine (first compound 0.03 µM) it was 0.264; with AT9283 + Decitabine (first compound 0.09487 µM), 0.165; with AT9283 + Decitabine (first compound 0.3 µM), 0.185. Moreover, the relative viability is 1.1 with Erlotinib + Olaparib (first compound 0.02 µM); 0.591 in the test with Erlotinib + Olaparib (first compound 0.2 µM); 1.02 in the test with Erlotinib + Olaparib (first compound 0.6325 µM); 0.354 with Erlotinib + Olaparib (first compound 2 µM); 0.612 in the test with AT9283 + OSI-027 (first compound 0.003 µM); 0.327 with AT9283 + OSI-027 (first compound 0.03 µM). Moreover, the figures for the relative viability with AT9283 + OSI-027 (first compound 0.09487 µM) and in the test with AT9283 + OSI-027 (first compound 0.3 µM) were 0.073 and 0.0736, respectively.
As to HCC-78, the relative viability with Erlotinib + Vorinostat (first compound 0.02 µM) was 0.428; with Erlotinib + Vorinostat (first compound 0.2 µM) it was 0.437; with Erlotinib + Vorinostat (first compound 0.6325 µM), 0.36; with Erlotinib + Vorinostat (first compound 2 µM), 0.335; with Erlotinib + Bortezomib (first compound 0.02 µM), 0.452; with Erlotinib + Bortezomib (first compound 0.2 µM) it was 0.333. For the same cell line, the relative viability with Erlotinib + Bortezomib (first compound 0.6325 µM) is 0.496; with Erlotinib + Bortezomib (first compound 2 µM), 0.302; with AT9283 + Decitabine (first compound 0.003 µM) it was 0.548; with AT9283 + Decitabine (first compound 0.03 µM), 0.626; in the test with AT9283 + Decitabine (first compound 0.09487 µM), 0.428; with AT9283 + Decitabine (first compound 0.3 µM), 0.322. For the same cell line, the relative viability in the test with Erlotinib + Olaparib (first compound 0.02 µM) stood at 0.877; with Erlotinib + Olaparib (first compound 0.2 µM), 0.634; in the test with Erlotinib + Olaparib (first compound 2 µM), 0.728; with AT9283 + OSI-027 (first compound 0.003 µM) it was 0.519; in the test with AT9283 + OSI-027 (first compound 0.03 µM), 0.304; in the test with AT9283 + OSI-027 (first compound 0.09487 µM) it was 0.271. The relative viability with AT9283 + OSI-027 (first compound 0.3 µM) was determined as 0.276.

For the origin of these results see the supplement of paper PMC10307832.
